The numbers were not newly measured in patent US20250009900A1, “OXAZAPHOSPHORINE ANTIBODY DRUG CONJUGATES AND METHODS OF USE” (LA Life Products, LLC, priority 2023, published 2025), which cites them from elsewhere.

For the data set the following is noted: combination with ipilimumab (anti-CTLA-4), in the clinic; cited from earlier work.

Regarding `Cn1c(COP(=O)(NCCBr)NCCBr)cnc1[N+](=O)[O-]` [evofosfamide], the “good clinical activity (patients)” value was 15 of 22.
